Test results as given in patent publication US20230339937A1, “CONDENSED RING COMPOUNDS THAT INHIBIT H-PGDS” (SATO PHARMACEUTICAL CO., LTD., priority 2020, published 2023).

Molecular target: T1, Recombinant human H-PGDS (Homo sapiens, UniProt O60760)
T1 construct: made in house; host or cells: E. coli
Assay: H-PGDS inhibitory activity (prostaglandin D2 production from prostaglandin H2, measured by LC-MS/MS)
Assay type: biochemical
Settings: recombinant human H-PGDS 1.0 nM expressed in E. coli; prostaglandin H2 25 μM; preincubated 15 minutes on ice, reacted on ice for 1 minute; concentration that inhibits prostaglandin D2 production by 50%
Outline: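 Recombinant human H-PGDS (E. coli-expressed, 1.0 nM final) preincubated with compound 15 min on ice in 20 mM Tris-HCl pH 8.0, 2 mM MgCl2, 2 mM GSH, 0.5 mg/mL γ-globulin. Reaction with 25 µM PGH2 run 1 min on ice, stopped with FeCl2/citric acid, PGD2 quantified by LC-MS/MS. Activity expressed as % of DMSO control after subtracting non-enzymatic PGD2.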

T1 sequence (O60760 whole entry): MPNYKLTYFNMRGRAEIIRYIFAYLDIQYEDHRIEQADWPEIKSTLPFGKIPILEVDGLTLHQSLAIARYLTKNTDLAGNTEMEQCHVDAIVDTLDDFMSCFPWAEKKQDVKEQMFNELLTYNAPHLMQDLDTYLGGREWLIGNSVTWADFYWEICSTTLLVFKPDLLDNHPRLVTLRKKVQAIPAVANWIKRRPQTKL

SMILES	IC50 [nM]
Cn1nnc(N2CCC(NC(=O)c3ccc(-c4nccc5occc45)cc3)CC2)n1 [Example 249, 4-(furo[3,2-c]pyridin-4-yl)-N-[1-(2-methyl-2 H-tetrazol-5-yl)piperidin-4-yl]benzamide]	1.6
O=C(NCc1ccccn1)c1ccc(-c2nccc3occc23)cc1 [Example 93, 4-(furo[3,2-c]pyridin-4-yl)-N-(pyridin-2-ylmethyl) benzamide]	32
O=C(NCc1ccccc1Cl)c1ccc(-c2nccc3occc23)cc1 [Example 71, N-(2-chlorobenzyl)-4-(furo[3,2-c]pyridin-4-yl)benzamide]	12
CC1(NC(=O)c2ccc(-c3nccc4occc34)cc2)CCC(O)CC1 (stereo not drawn) [Example 276, 4-(furo[3,2-c]pyridin-4-yl)-N-(4-hydroxy-1-methylcyclohexyl)benzamide]	12
CC(O)CNC(=O)c1ccc(-c2nccc3sccc23)cc1 (stereo not drawn) [Example 61, N-(2-hydroxypropyl)-4-(thieno[3,2-c]pyridin-4-yl)benzamide]	31
O=C(NCc1cccnc1)c1ccc(-c2nccc3[nH]ccc23)cc1 [Example 10, N-(pyridin-3-ylmethyl)-4-(1H-pyrrolo[3,2-c]pyridin-4-yl)benzamide]	1.7
O=C(NCC1CCCC1)c1ccc(-c2nccc3[nH]ccc23)cc1 [Example 36, N-(cyclopenthyl-methyl)-4-(1H-pyrrolo[3,2-c]pyridin-4-yl)benzamide]	0.83
O=C(N[C@H]1CCN(c2ccnc(Cl)c2)C1)c1ccc(-c2nccc3occc23)cc1 [Example 195, (S)-N-[1-(2-chloropyridin-4-yl)pyrrolidin-3-yl]-4-(furo[3,2-c]pyridin-4-yl)benzamide]	1.7
O=C(NCC1CCCCC1)c1ccc(-c2nccc3occc23)cc1 [Example 85, N-(cyclohexyl-methyl)-4-(furo[3,2-c]pyridin-4-yl)benzamide]	32
C=Cc1cc2occc2c(-c2ccc(C(=O)N[C@H]3CC[C@H](C(C)(C)O)CC3)cc2)n1 [Example 313, N-[trans-4-(2-hydroxypropan-2-yl)cyclohexyl]-4-(6-vinylfuro[3,2-c]pyridin-4-yl)benzamide]	169
O=C(NC1CCN(c2cccc(F)n2)CC1)c1ccc(-c2nccc3occc23)cc1 [Example 147, N-[1-(6-fluoropyridin-2-yl)piperidin-4-yl]-4-(furo[3,2-c]pyridin-4-yl)benzamide]	1
O=C(NCc1cccnc1)c1ccc(-c2nccc3occc23)cc1 [Example 77, 4-(furo[3,2-c]pyridin-4-yl)-N-(pyridin-3-ylmethyl) benzamide]	24
O=C(NCC1COc2ccccc2C1)c1ccc(-c2nccc3occc23)cc1 (stereo not drawn) [Example 221, N-(chroman-3-ylmethyl)-4-(furo[3,2-c]pyridin-4-yl)benzamide]	4.9
O=C(NC1CCC(N2CCC(F)(F)CC2)CC1)c1ccc(-c2nccc3occc23)cc1 (stereo not drawn) [Example 307, N-[4-(4,4-difluoropiperidin-1-yl)cyclohexyl]-4-(furo[3,2-c]pyridin-4-yl)benzamide]	2.2
COC(=O)[C@H]1CC[C@H](NC(=O)c2ccc(-c3nccc4occc34)cc2)CC1 [Example 261, Methyl trans-4-[4-(furo[3,2-c]pyridin-4-yl)benzamide]cyclohexane-1-carboxylate]	1.6
COCCN[C@H]1CC[C@H](NC(=O)c2ccc(-c3nccc4occc34)cc2)CC1 [Example 301, 4-(furo[3,2-c]pyridin-4-yl)-N-{trans-4-[(2-methoxyethyl)amino]cyclohexyl}benzamide]	11
O=C(N[C@H]1CC[C@H](O)CC1)c1ccc(-c2nccc3occc23)c(F)c1 [Example 325, 3-fluoro-4-(furo[3,2-c]pyridin-4-yl)-N-(trans-4-hydroxycyclohexyl)benzamide]	2.3

The remaining molecules from weak to strong by IC50, led by results:

IC50 [nM]	SMILES
27	COCCCNC(=O)c1ccc(-c2nccc3occc23)cc1 [Example 79, 4-(furo[3,2-c]pyridin-4-yl)-N-(3-methoxypropyl) benzamide]
20	CCCCNC(=O)c1ccc(-c2nccc3occc23)cc1 [Example 75, N-butyl-4-(furo[3,2-c]pyridin-4-yl)benzamide]
15	CCc1cnc(-c2ccc(C(=O)N[C@H]3CC[C@H](C(C)(C)O)CC3)cc2)c2ccoc12 [Example 138, 4-(7-ethylfuro[3,2-c]pyridin-4-yl)-N-[trans-4-(2-hydroxypropan-2-yl)cyclohexyl]benzamide]
14	O=C(NCC1CCCC1)c1ccc(-c2nccc3occc23)cc1 [Example 84, N-(cyclopenthyl-methyl)-4-(furo[3,2-c]pyridin-4-yl)benzamide]
12	O=C(NC1CCCC1)c1ccc(-c2nccc3occc23)cc1 [Example 87, N-cyclopenthyl-4-(furo[3,2-c]pyridin-4-yl)benzamide]
12	O=C(NCc1ccc(Cl)cc1)c1ccc(-c2nccc3occc23)cc1 [Example 70, N-(4-chlorobenzyl)-4-(furo[3,2-c]pyridin-4-yl)benzamide]
4.8	N#Cc1cccc(CNC(=O)c2ccc(-c3nccc4occc34)cc2)c1 [Example 73, N-(3-cyanobenzyl)-4-(furo[3,2-c]pyridin-4-yl)benzamide]
3.5	O=C(NC1CC2(C1)CN(c1ncccn1)C2)c1ccc(-c2nccc3occc23)cc1 [Example 210, 4-(furo[3,2-c]pyridin-4-yl)-N-[2-(pyrimidin-2-yl)-2-azaspiro[3.3]heptan-6-yl]benzamide]
3.4	CCC(=O)N[C@H]1CC[C@H](NC(=O)c2ccc(-c3nccc4occc34)cc2)CC1 [Example 298, 4-(furo[3,2-c]pyridin-4-yl)-N-(trans-4-propionamidocyclohexyl)benzamide]
2.6	O=C(NC1CCN(c2cccc(=O)[nH]2)CC1)c1ccc(-c2nccc3occc23)cc1 [Example 172, 4-(furo[3,2-c]pyridin-4-yl)-N-[1-(6-oxo-1,6-dihydropyridin-2-yl)piperidin-4-yl]benzamide]
2.3	O=C(NC1CCN(c2ncc(Br)c(=O)[nH]2)CC1)c1ccc(-c2nccc3occc23)cc1 [Example 182, N-[1-(5-bromo-6-oxo-1,6-dihydropyrimidin-2-yl)piperidin-4-yl]-4-(furo[3,2-c]pyridin-4-yl)benzamide]
1.9	O=C(NC1CCN(c2ccncn2)CC1)c1ccc(-c2nccc3occc23)cc1 [Example 171, 4-(furo[3,2-c]pyridin-4-yl)-N-[1-(pyrimidin-4-yl)piperidin-4-yl]benzamide]
1.8	O=C(NC1CCN(c2ccc(Cl)nn2)CC1)c1ccc(-c2nccc3occc23)cc1 [Example 148, N-[1-(6-chloropyridazin-3-yl)piperidin-4-yl]-4-(furo[3,2-c]pyridin-4-yl)benzamide]
1.6	Cc1cnc(N2CCC(NC(=O)c3ccc(-c4nccc5occc45)cc3)CC2)nc1 [Example 156, 4-(furo[3,2-c]pyridin-4-yl)-N-[1-(5-methylpyrimidin-2-yl)piperidin-4-yl]benzamide]
1.6	CC(C)(O)[C@H]1CC[C@H](NC(=O)c2ccc(-c3nc(CO)cc4occc34)cc2)CC1 [Example 319, 4-[6-(hydroxymethyl)furo[3,2-c]pyridin-4-yl]-N-[trans-4-(2-hydroxypropan-2-yl)cyclohexyl]benzamide]
1.5	CC(C)(O)[C@H]1CC[C@H](NC(=O)c2ccc(-c3nccc4sccc34)cc2)CC1 [Example 63, N-[trans-4-(2-hydroxypropan-2-yl)cyclohexyl]-4-(thieno[3,2-c]pyridin-4-yl)benzamide]
1.4	CC(=O)NCCNC(=O)c1ccc(-c2nccc3[nH]ccc23)cc1 [Example 28, N-(2-acetamidoethyl)-4-(1H-pyrrolo[3,2-c]pyridin-4-yl)benzamide]
1.3	O=C(NC1CCN(c2ccnc(F)c2)CC1)c1ccc(-c2nccc3occc23)cc1 [Example 159, N-[1-(2-fluoropyridin-4-yl)piperidin-4-yl]-4-(furo[3,2-c]pyridin-4-yl)benzamide]
1.3	Cn1ccc(CNC(=O)c2ccc(-c3nccc4[nH]ccc34)cc2)n1 [Example 53, N-[(1-methyl-1H-pyrazol-3-yl)methyl]-4-(1H-pyrrolo[3,2-c]pyridin-4-yl)benzamide]
1.2	NS(=O)(=O)c1cnc(N2CCC(NC(=O)c3ccc(-c4nccc5occc45)cc3)CC2)nc1 [Example 177, 4-(furo[3,2-c]pyridin-4-yl)-N-[1-(5-sulfamoylpyrimidin-2-yl)piperidin-4-yl]benzamide]
1.2	Cc1cc2occc2c(-c2ccc(C(=O)NC34CCC(O)(CC3)CC4)cc2)n1 [Example 343, N-(4-hydroxybicyclo[2.2.2]octan-1-yl)-4-(6-methylfuro[3,2-c]pyridin-4-yl)benzamide]
1.2	Cc1cc(=O)[nH]c(N2CCC(NC(=O)c3ccc(-c4nccc5occc45)cc3)CC2)n1 [Example 181, 4-(furo[3,2-c]pyridin-4-yl)-N-[1-(4-methyl-6-oxo-1,6-dihydropyrimidin-2-yl)piperidin-4-yl]benzamide]
1.1	Cn1cnc(CO)c1N1CCC(NC(=O)c2ccc(-c3nccc4occc34)cc2)CC1 [Example 253, 4-(furo[3,2-c]pyridin-4-yl)-N-{1-[4-(hydroxymethyl)-1-methyl-1H-imidazol-5-yl]piperidin-4-yl}benzamide]
1.1	O=C(NC1CCN(C2COC2)CC1)c1ccc(-c2nccc3occc23)cc1 [Example 236, 4-(furo[3,2-c]pyridin-4-yl)-N-[1-(oxetan-3-yl)piperidin-4-yl]benzamide]
0.74	O=C(N[C@H]1CCN(c2ncccn2)C1)c1ccc(-c2nccc3occc23)c(F)c1 [Example 328, (S)-3-fluoro-4-(furo[3,2-c]pyridin-4-yl)-N-[1-(pyrimidin-2-yl)pyrrolidin-3-yl]benzamide]
